Experiment [1] deals with MCF7. The experiment in a line: Induction of apoptosis in human MCF7 cells assessed as viable cells after 24 hrs using 7-AAD/annexin-V staining by flow cytometry analysis. It is filed as functional.
In a further experiment the test system is 4T1. The experiment in a line: Cytotoxicity against mouse 4T1 cells after 48 hrs by SRB assay. In kind it is functional, cell-based.
The subject of the next experiment is DU-145. The experiment in a line: Cytotoxicity against human DU145 cells at 10 uM after 48 hrs by SRB assay. It is filed as functional. The note with it: DU-145, 48 h. Background: Sulforhodamine B stains cellular protein and so reports cell mass.
For the next experiment, the system named is MDA-MB-231. The experiment is described as follows: Cytotoxicity against human MDA-MB-231 cells after 48 hrs by SRB assay. It is filed as functional, cell-based.
In experiment [2] the test system is MCF7. The experiment in a line: Induction of apoptosis in human MCF7 cells assessed as early apoptotic cells after 24 hrs using 7-AAD/annexin-V staining by flow cytometry analysis. It is filed as functional. On the technique in general: In flow cytometry, cells or beads pass a laser one at a time.
Experiment [3] is described as follows: Cytotoxicity against human A172 cells at 10 uM after 48 hrs by SRB assay. It is filed as functional. The note with it: A 172, 48 h.
Experiment [4] has as its system MCF7. The experiment in a line: Induction of apoptosis in human MCF7 cells assessed as necrotic cells after 24 hrs using 7-AAD/annexin-V staining by flow cytometry analysis. In kind it is functional.
Experiment [5] can be described thus: Cytotoxicity against human A172 cells after 48 hrs by SRB assay. In kind it is functional, cell-based. To be noted: A 172, 48 h.
Experiment [6] has as its system MCF7. The experiment is described as follows: Cytotoxicity against human MCF7 cells at 10 uM after 48 hrs by SRB assay. To be noted: MCF7, 48 h. It is filed as functional.
A short description of experiment [7]: Cytotoxicity against human DLD1 cells at 10 uM after 48 hrs by SRB assay. The note with it: DLD-1, 48 h. It is filed as functional.
Experiment [8] deals with MCF7. The experiment in a line: Induction of apoptosis in human MCF7 cells assessed as DNA fragmentation at 10 uM after 24 hrs […] by APOBrdU TUNNEL assay. In kind it is functional, cell-based.
Experiment [9] has as its system SK-OV-3. The experiment in a line: Cytotoxicity against human SKOV3 cells at 10 uM after 48 hrs by SRB assay. In kind it is functional. To be noted: SK-OV-3, 48 h.
The nature of experiment [10]: Cytotoxicity against human PLC/PRF/5 cells at 10 uM after 48 hrs by SRB assay. It is filed as functional. The note with it: PLC-PRF-5, 48 h.
The test system of experiment [11] is MCF7. The experiment is described as follows: Induction of apoptosis in human MCF7 cells assessed as late apoptotic cells after 24 hrs using 7-AAD/annexin-V staining by flow cytometry analysis. It is filed as functional.
Another experiment deals with Vero. The experiment in a line: Cytotoxicity against African green monkey Vero cells after 48 hrs by SRB assay. The note with it: Chlorocebus sabaeus. In kind it is cell-based.
Experiment [12] can be described thus: Cytotoxicity against human MIAPaCa2 cells at 10 uM after 48 hrs by SRB assay. It is filed as functional. The note with it: MIA PaCa-2, 48 h.
The test system of experiment [13] is SK-OV-3. The experiment is described as follows: Cytotoxicity against human SKOV3 cells after 48 hrs by SRB assay. It is filed as functional, cell-based. The note with it: SK-OV-3, 48 h.
The subject of experiment [14] is A549. The experiment is described as follows: Cytotoxicity against human A549 cells after 48 hrs by SRB assay. It is filed as functional, cell-based. To be noted: A549, 48 h.
Another experiment has as its system PC-3. The experiment is described as follows: Cytotoxicity against human PC3 cells after 48 hrs by SRB assay. In kind it is functional, cell-based. The note with it: PC-3, 48 h.
Experiment [15] has as its system A549. The experiment is described as follows: Cytotoxicity against human A549 cells at 10 uM after 48 hrs by SRB assay. In kind it is functional. The note with it: A549, 48 h.
The test system of experiment [16] is MCF7. The experiment is described as follows: Cytotoxicity against human MCF7 cells after 48 hrs by SRB assay. In kind it is functional, cell-based.

Each structure is given as a SMILES string. Active and inactive are the calls of the source. The calls are words filed in the database; no cut-off is given here.

In the case of `COc1ccc(C(=O)/C=C/c2nccc3c2[nH]c2ccccc23)cc1OC`, the Activity with MCF7 [1] was 37%; in the experiment on 4T1 it was “Dose-dependent effect”; in the experiment with MDA-MB-231, “Dose-dependent effect”; in the experiment with MCF7 [2] it was 20.4%; with MCF7 [4], 3.12%; with MCF7 [11], 39.5%. In addition, in the experiment with MCF7 [16], the Activity result was “Dose-dependent effect”. Further, the inhibition (usually the percentage by which the read-out fell short of the control) at 10 µM was found to be 71.9% in the experiment on DU-145; 74.3% in [3]; 94.5% in the experiment on MCF7 [6]; 88.1% in [7]; 41.6% in the experiment on SK-OV-3 [9]; 78.3% in experiment [10]. Besides, the inhibition at 10 µM in [12] amounted to 87.5%; in the experiment on A549 [15], 84.7%. Further, the half-maximal inhibitory concentration (IC50) (in general, the midpoint of a concentration-inhibition curve) was 3.33 µM in [5]; greater than 10 µM with Vero; greater than 10 µM in the experiment with SK-OV-3 [13]; 2.31 µM in the experiment with A549 [14]; 5.99 µM in the experiment on PC-3; 2.25 µM in the experiment on MCF7 [16] (MCF7, 48 h). The result with MCF7 [8] was Active.
